Laboratory results reported in patent publication US9718828B2 (MERCK SHARP & DOHME CORP., priority 2011, dated 2017).
Where a name gives a salt, the structure may show the parent alone. Read-outs that look alike come from different tables or passages of the source.

Molecular target: Btk enzyme (His-Btk) (Homo sapiens (Human), UniProt Q06187)
Test: Btk enzyme activity, IMAP fluorescence polarization assay (Assay Method A)
[1] = read-out: EC50 Btk activity values - Assay Method A, IMAP-FP, 60 min pre-incubation, 5 μM ATP, class 100-1000 is given as ≧100 nM-<1 μM

Chain of Btk enzyme (His-Btk) (Q06187 whole entry): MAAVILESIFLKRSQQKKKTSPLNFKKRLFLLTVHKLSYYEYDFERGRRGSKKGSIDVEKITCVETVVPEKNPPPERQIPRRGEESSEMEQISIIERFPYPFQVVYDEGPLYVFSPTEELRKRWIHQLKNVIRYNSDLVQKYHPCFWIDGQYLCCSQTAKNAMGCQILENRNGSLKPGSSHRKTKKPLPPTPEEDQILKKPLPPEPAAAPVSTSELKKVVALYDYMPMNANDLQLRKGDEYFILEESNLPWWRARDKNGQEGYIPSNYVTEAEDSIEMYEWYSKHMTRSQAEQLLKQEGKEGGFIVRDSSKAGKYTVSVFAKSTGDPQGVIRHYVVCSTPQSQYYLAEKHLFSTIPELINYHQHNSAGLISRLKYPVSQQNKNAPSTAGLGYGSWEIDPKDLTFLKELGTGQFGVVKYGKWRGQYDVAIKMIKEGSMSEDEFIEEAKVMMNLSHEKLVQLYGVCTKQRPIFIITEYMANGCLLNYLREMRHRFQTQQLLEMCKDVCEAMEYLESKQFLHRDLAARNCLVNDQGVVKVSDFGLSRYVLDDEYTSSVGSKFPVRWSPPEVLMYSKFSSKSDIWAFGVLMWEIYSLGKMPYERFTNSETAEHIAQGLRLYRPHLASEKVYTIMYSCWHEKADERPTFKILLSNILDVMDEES

Structure (SMILES) | EC50 | also measured
CC1(C(=O)N2CCC[C@@H](c3nc(-c4ccc(C(=O)Nc5cc(C(F)(F)F)ccn5)cc4)c4c(N)ncc(-c5ccccc5)n34)C2)COC1 [Example 321, (R)-4-(8-amino-3-(1-(3-methyloxetane-3-carbonyl)piperidin-3-yl)-5-phenylimidazo[1,5-a]pyrazin-1-yl)-N-(4-(trifluoromethyl)pyridin-2-yl)benzamide] | 0.01 to 0.1 µM | 
Nc1nccn2c1c(-c1ccc(C(=O)Nc3ccccn3)cc1)nc2[C@H]1CC[C@H](O)CC1 [Example 1, 4-(8-amino-3-((trans)-4-hydroxycyclohexyl)imidazo[1,5-a]pyrazin-1-yl)-N-(pyridin-2-yl)benzamide] | 0.01 to 0.1 µM | 
Nc1nccn2c(N3CCC3)nc(-c3ccc(C(=O)Nc4cc(C(F)(F)F)ccn4)cc3)c12 [Example 210, 4-(8-amino-3-(azetidin-1-yl)imidazo[1,5-a]pyrazin-1-yl)-N-(4-(trifluoromethyl)pyridin-2-yl)benzamide] | 0.01 to 0.1 µM | 
COC(=O)c1cnc(N)c2c(-c3ccc(C(=O)Nc4cc(C(F)(F)F)ccn4)cc3)nc(C)n12 [Example 312, methyl 8-amino-3-methyl-1-(4-(4-(trifluoromethyl)pyridin-2-ylcarbamoyl)phenyl)imidazo[1,5-a]pyrazine-5-carboxylate] | 0.01 to 0.1 µM | 
Nc1nccn2c(N3CCCC(C(=O)NCC4CC4)C3)nc(-c3ccc(C(=O)Nc4ccccn4)cc3)c12 (stereo not drawn) [Example 225, 1-(8-amino-1-(4-(pyridin-2-ylcarbamoyl)phenyl)imidazo[1,5-a]pyrazin-3-yl)-N-(cyclopropylmethyl)-piperidine-3-carboxamide, TFA sat] | 0.01 to 0.1 µM | 
Nc1nccn2c([C@@H]3CCC[C@@H](NC(=O)C4CCCO4)C3)nc(-c3ccc(C(=O)Nc4cc(C(F)(F)F)ccn4)cc3)c12 (relative stereo) [Example 169, N-((trans)-3-(8-amino-1-(4-(4-(trifluoromethyl)pyridin-2-ylcarbamoyl)phenyl)imidazo [1,5-a]pyrazin-3-yl)cyclohexyl)tetrahydrofuran-2-carboxamide] |  | EC50 [1]: < 0.01 µM
COCCC(=O)N1CCC[C@@H](c2nc(-c3ccc(C(=O)Nc4cc(C#N)ccn4)cc3)c3c(N)nccn23)C1 [Example 97, (R)-4-(8-amino-3-(1-(3-methoxypropanoyl)piperidin-3-yl)imidazo[1,5-a]pyrazin-1-yl)-N-(4-cyanopyridin-2-yl)benzamide] | < 0.01 µM | 
CC(C)C(=O)N1CCC[C@@H](n2nc(-c3ccc(C(=O)Nc4cc(C(F)(F)F)ccn4)cc3)c3c(N)ncnc32)C1 [Example 279, (R)-4-(4-amino-1-(1-isobutyrylpiperidin-3-yl)-1H-pyrazolo[3,4-d]pyrimidin-3-yl)-N-(4-(trifluoromethyl)pyridin-2-yl)benzamide] | 0.01 to 0.1 µM | 
CSCCC(=O)N1C[C@H](c2nc(-c3ccc(C(=O)Nc4cc(C5CC5)ccn4)cc3)c3c(N)nccn23)CC[C@@H]1C (relative stereo) [Example 198, 4-(8-amino-3-((cis)-6-methyl-1-(3-(methylthio)propanoyl)-piperidin-3-yl)imidazo[1,5-a]pyrazin-1-yl)-N-(4-cyclopropylpyridin-2-yl)benzamide, TFA salt] |  | EC50 [1]: < 0.01 µM
Nc1nccn2c(C3CC34CCN(C(=O)CO)CC4)nc(-c3ccc(C(=O)Nc4ccccn4)cc3)c12 (stereo not drawn) [Example 152, 4-(8-amino-3-(6-(2-hydroxyacetyl)-6-azaspiro[2.5]octan-1-yl)imidazo[1,5-a]pyrazin-1-yl)-N-(pyridin-2-yl)benzamide] | 0.1 to 1 µM | 
Cc1nc(-c2ccc(C(=O)Nc3cc(C(F)(F)F)ccn3)cc2)c2c(N)ncc(C(=O)NCc3cccnc3)n12 [Example 296, 8-amino-3-methyl-N-(pyridin-3-ylmethyl)-1-(4-(4-(trifluoromethyl)pyridin-2-ylcarbamoyl)phenyl)imidazo[1,5-a]pyrazine-5-carboxamide] | 0.1 to 1 µM | 
Nc1nccn2c([C@@H]3CCCN(CC4CC4)C3)nc(-c3ccc(C(=O)Nc4cc(C(F)(F)F)ccn4)cc3)c12 [Example 140, (R)-4-(8-amino-3-(1-(cyclopropylmethyl)piperidin-3-yl)imidazo[1,5-a]pyrazin-1-yl)-N-(4-(trifluoromethyl)pyridin-2-yl)benzamide, TFA salt] | 0.01 to 0.1 µM | 
Nc1nccn2c1c(-c1ccc(C(=O)Nc3cc(-c4ccccc4)ccn3)cc1)nc2[C@H]1CC[C@H](O)CC1 [Example 20, 4-(8-amino-3-((trans)-4-hydroxycyclohexyl)imidazo[1,5-a]pyrazin-1-yl)-N-(4-phenylpyridin-2-yl)benzamide] |  | EC50 [1]: < 0.01 µM
Nc1nccn2c([C@@H]3CCCN(Cc4ccncc4)C3)nc(-c3ccc(C(=O)Nc4cc(C(F)(F)F)ccn4)cc3)c12 [Example 141, (R)-4-(8-amino-3-(1-(pyridin-4-ylmethyl)piperidin-3-yl)imidazo[1,5-a]pyrazin-1-yl)-N-(4-(trifluoromethyl)pyridin-2-yl)benzamide, TFA salt] |  | EC50 [1]: < 0.01 µM
Nc1nccn2c1c(-c1ccc(C(=O)Nc3cc(C(F)(F)F)ccn3)cc1)nc2[C@H]1CC[C@H](O)CC1 [Example 2, 4-(8-amino-3-((trans)-4-hydroxycyclohexyl)imidazo[1,5-a]pyrazin-1-yl)-N-(4-(trifluoromethyl)pyridin-2-yl)benzamide] |  | EC50 [1]: < 0.01 µM
Nc1nccn2c([C@@H]3CCCN(C(=O)CC4CC4)C3)nc(-c3ccc(C(=O)Nc4ccccn4)cc3)c12 [Example 92, (R)-4-(8-amino-3-(1-(2-cyclopropylacetyl)piperidin-3 yl)imidazo[1,5-a]pyrazin-1-yl)-N-(pyridin-2-yl)benzamide] | < 0.01 µM | 
Cc1ccnc(NC(=O)c2ccc(-c3nc([C@H]4CC[C@H](O)CC4)n4ccnc(N)c34)cc2)c1 [Example 5, 4-(8-amino-3-((trans)-4-hydroxycyclohexyl)imidazo[1,5-a]pyrazin-1-yl)-N-(4-methylpyridin-2-yl)benzamide] |  | EC50 [1]: < 0.01 µM
CCCc1ccnc(NC(=O)c2ccc(-c3nc(C4CCOC(C)(C)C4)n4ccnc(N)c34)cc2)c1 (stereo not drawn) [Example 36, 4-(8-amino-3-(2,2-dimethyltetrahydro-2H-pyran-4-yl)imidazo[1,5-a]pyrazin-1-yl)-N-(4-propylpyridin-2-yl)benzamide] |  | EC50 [1]: < 0.01 µM
CO[C@H]1CC[C@@H](c2nc(-c3ccc(C(=O)Nc4cc(C#N)ccn4)cc3)c3c(N)nccn32)CC1 [Example 41, 4-(8-amino-3-((cis)-4-methoxycyclohexyl)imidazo [1,5-a]pyrazin-1-yl)-N-(4-cyanopyridin-2-yl)benzamide] | < 0.01 µM | 
Nc1nccn2c([C@@H]3CCCN(S(=O)(=O)C4CC4)C3)nc(-c3ccc(C(=O)Nc4cc(C(F)(F)F)ccn4)cc3)c12 [Example 75, (R)-4-(8-amino-3-(1-(cyclopropylsulfonyl)piperidin-3-yl)imidazo[1,5-a]pyrazin-1-yl)-N-(4-(trifluoromethyl)pyridin-2-yl)benzamide] | < 0.01 µM | 
CN1CCc2nc(NC(=O)c3ccc(-c4nc([C@H]5CC[C@H](O)CC5)n5ccnc(N)c45)cc3)sc2C1 [Example 18, 4-(8-amino-3-((trans)-4-hydroxycyclohexyl)imidazo[1,5-a]pyrazin-1-yl)-N-(5-methyl-4,5,6,7-tetrahydrothiazolo[5,4-c]pyridin-2-yl)benzamide] | 0.1 to 1 µM | 
COC1CN(c2nc(-c3ccc(C(=O)Nc4ccccn4)cc3)c3c(N)nccn23)C1 [Example 217, 4-(8-amino-3-(3-methoxyazetidin-1-yl)imidazo[1,5-a]pyrazin-1-yl)-N-(pyridin-2-yl)benzamide] | 0.1 to 1 µM | 
Cc1nc(-c2ccc(C(=O)Nc3cc(C(F)(F)F)ccn3)cc2)c2c(N)ncc(C(=O)NCc3cnco3)n12 [Example 297, 8-amino-3-methyl-N-(oxazol-5-ylmethyl)-1-(4-(4-(trifluoromethyl)pyridin-2-ylcarbamoyl)phenyl)imidazo[1,5-a]pyrazine-5-carboxamide] | 0.1 to 1 µM | 
CCN(CC)C(=O)C1CCCN(c2nc(-c3ccc(C(=O)Nc4ccccn4)cc3)c3c(N)nccn23)C1 (stereo not drawn) [Example 230, 1-(8-amino-1-(4-(pyridin-2-ylcarbamoyl)phenyl)imidazo[1,5-a]pyrazin-3-yl)-N,N-diethylpiperidine-3-carboxamide, TFA salt] | 0.01 to 0.1 µM | 
Cc1cc(C(=O)Nc2ccccn2)ccc1-c1nc([C@H]2CC[C@H](O)CC2)n2ccnc(N)c12 [Example 16] | 0.1 to 1 µM | 
Nc1nccn2c1c(-c1ccc(C(=O)Nc3nc4c(s3)CNCC4)cc1)nc2[C@H]1CC[C@H](O)CC1 [Example 17, 4-(8-amino-3-((trans)-4-hydroxycyclohexyl)imidazo[1,5-a]pyrazin-1-yl)-N-(4,5,6,7-tetrahydrothiazolo[5,4-c]pyridin-2-yl)benzamide] |  | EC50 (read-out: EC50 Btk activity values - Assay Method A, IMAP-FP, 60 min pre-incubation, 5 μM ATP): ≥ 1 µM
COCCC(=O)N1CCC[C@@H](c2nc(-c3ccc(C(=O)Nc4ccccn4)nc3)c3c(N)nccn23)C1 [Example 287, (R)-5-(8-amino-3-(1-(3-methoxypropanoyl)piperidin-3-yl)imidazo[1,5-a]pyrazin-1-yl)-N-(pyridin-2-yl)picolinamide, TFA salt] | 0.01 to 0.1 µM | 
C[C@H]1CC[C@@H](c2nc(-c3ccc(C(=O)Nc4cc(C(F)(F)F)ccn4)cc3)c3c(N)nccn23)CN1C(=O)C1CCCO1 (relative stereo) [Example 194, 4-(8-amino-3-((cis)-6-methyl-1-(tetrahydrofuran-2-carbonyl)piperidin-3-yl)imidazo[1,5-a]pyrazin-1-yl)-N-(4-(trifluoromethyl)pyridin-2-yl)benzamide, TFA salt] |  | EC50 [1]: < 0.01 µM
Nc1nccn2c([C@@H]3CCCN(C=O)C3)nc(-c3ccc(C(=O)Nc4ccccn4)cc3)c12 [Example 95, (R)-4-(8-amino-3-(1-formylpiperidin-3-yl)imidazo[1,5-a]pyrazin-1-yl)-N-(pyridin-2-yl)benzamide] | 0.01 to 0.1 µM | 
Nc1nccn2c1c(-c1ccc(C(=O)Nc3cc(N4CCCC4)ccn3)cc1)nc2[C@H]1CC[C@H](O)CC1 [Example 21, 4-(8-amino-3-((trans)-4-hydroxycyclohexyl)imidazo[1,5-a]pyrazin-1-yl)-N-(4-(pyrrolidin-1-yl)pyridin-2-yl)benzamide] | 0.01 to 0.1 µM | 
